Measured values: US7387779B2, “Anti-angiogenic proteins and fragments and methods of use thereof” (Beth Israel Deaconess Medical Center, priority 1998, dated 2008)

Columns and labels:
[1] = system: MDAMB-435 tumor xenografts; test: MDAMB-435 human breast tumor xenograft (Example 59); type: in vivo, nude NCRNU mice; settings: 3 weeks; for Final Tumor Weight (V/Vo) ± SEM: control 468.5 ± 48.06
From the text: (§1) For tests involving the MDAMB-435 model, female nude NCRNU mice, 5-6 weeks old, weighing approximately 20 grams, were implanted with 2×10^6 MDAMB-435 cells into the subaxillary mammary fat pad. For tests involving the PC3 model, male nude NCRNU mice, 5-6 weeks old, weighing approximately 25 g were implanted with 2×10^6 PC3 cells into the dorsal subcutis. When the tumors were 100 mm^3 (for the MDAMB-435 model), or 60 mm^3 (for the PC3 model), the animals were pair-matched into treatment and control groups.
(§2) Each group contained 6-7 tumored mice, each of which was ear-tagged and followed individually throughout the experiment. Initial doses of peptide or vehicle control were given on the day of pair-matching (Day 0), and were administered daily via intraperitoneal (i.p.) injection at doses indicated. Mice were weighed weekly, and tumor measurements were taken by calipers weekly, starting on Day 0. These tumor measurements were converted to tumor volume by a well-known formula, (V=W^2×L/2) and mean tumor volumes were plotted against time. Mice were euthenized at the end of the treatment period. Upon termination, the mice were weighed, sacrificed and their tumors were excised. The mean tumor weight per group was calculated, and the mean treated tumor volume/control tumor volume×100 was subtracted from 100% to give the tumor growth inhibition (TGI) for each group.

PC3 tumor xenografts [2] = test: PC3 human prostate tumor xenograft (Example 59); type: in vivo, nude NCRNU mice; settings: 3 weeks; for Final Tumor Weight (V/Vo) ± SEM: control 1070.0 ± 132.5
From the text: as §1, §2

Caspase-3 in C-PAE cells = test: Caspase-3 assay; type: cell-based, bovine
Protocol: Tumstatin also altered cell morphology of C-PAE cells as monitored by phase contrast microscopy. After treating cells with 20 μg/ml of Tumstatin in the presence of 10% FCS for 24 hours on fibronectin-coated plates, the typical morphological features of apoptotic cells, membrane blebbing, cytoplasmic shrinkage, and chromatin condensation could be observed. […] Caspase-3 assay: Caspase-3 (CPP32) is an intracellular protease activated at the early stage of apoptosis, and initiates cellular breakdown by degrading structural and DNA repair proteins (Casciola-Rosen, L. et al., 1996, J. Exp. Med. 183:1957-64; Salvesen, G. S. et al., 1997, Cell 91:443-46). The protease activity of Caspase-3 was measured spectrophotometrically by detection of the chromophore (p-nitroanilide) cleaved from the labeled substrate (DEVD-pNA). C-PAE cells or PC-3 cells (0.5×10^6 per well) were plated onto a 6-well plate precoated with fibronectin (10 μg/ml) in DMEM supplemented with 10% FCS, and incubated overnight. The next day, the medium was replaced with DMEM containing 2% FCS and then incubated overnight at 37° C. Then cells were then stimulated with bFGF (3 ng/ml) in DMEM supplemented with 2% FCS, and also containing either TNF-α (80 ng/ml, positive control) or Tumstatin (10 μg/ml), and incubated for 24 hours. Controls received PBS buffer. After 24 hours, the supernatant cells were collected, and attached cells were trypsinized and combined with the supernatant cells. Cells were counted and resuspended in cell lysis buffer (Clontech) at a concentration of 4×10^7 cells/ml. The rest of the protocol followed the manufacturer's instructions (Clontech). A specific inhibitor of Caspase-3, DEVD-fmk (Asp-Glu-Val-Asp-fluoromethyl ketone) was used to confirm the specificity of the assay. The absorbance was measured in a microplate reader (Bio-Rad, Hercules, Calif., USA) at 405 nm. The assay was repeated three times for each cell type.
Apoptosis was also evaluated by measuring Caspase-3 activity as described in Example 27, above. The results are shown in FIG. 35, which is a histogram showing Caspase-3 activity as a measure of absorbance at OD405 (y-axis) of C-PAE cells treated (x-axis) with 5 μg/ml Tum-1, Tum-2, Tum-3 or Tum-4, or 80 ng/ml TNF-α or PBS buffer (control).
Caspase-3 activity was also assayed as described above. DEVD-fmk, a specific caspase-3 inhibitor, was used as an internal control to show specificity of Tumstatin-44-131. TNF-α (80 ng/ml) was used as a positive control. The experiments were repeated three times.
The protease activity of Caspase-3 in cells treated with T3 peptide was measured spectrophotometrically by detection of the chromophore (p-nitroanilide) cleaved from the labeled substrate (DEVD-pNA). […] In PC-3 nonendothelial cells, there was no difference in Caspase-3 activity between control treatments and T3 peptide-treated cells.

PC3 tumor xenografts [3] = test: PC3 human prostate tumor xenograft (Example 58); type: in vivo, nude NCRNU mice; settings: 5.0 mg/kg i.p. daily, 3 weeks
Protocol: Male nude NCRNU mice, 5-6 weeks old, weighing approximately 25 grams, 6 were implanted with 2×10^6 PC3 cells into the dorsal subcutis. When the tumors were 60 mm^3, the animals were pair-matched into treatment and control groups. Each group contained 6-7 tumored mice, each of which was ear-tagged and followed individually throughout the experiment. Initial doses of peptide or vehicle control were given on the day of pair-matching (Day 0), and were administered via intraperitoneal (i.p.) injection at doses indicated. Mice were weighed weekly, and tumor measurements were taken by calipers weekly. These tumor measurements were converted to tumor volume by a well-known formula, (V=W^2×L/2), and mean tumor volumes were plotted against time. Mice were euthenized at the end of the treatment period. Upon termination, the mice were weighed, sacrificed and their tumors were excised. The mean tumor weight per group was calculated, and the value of mean treated tumor volume or volume ratio/mean control tumor volume or volume ratio×100 was subtracted from 100% to give the tumor growth inhibition (TG1) for each group. All groups received injections I.P. daily, except for two T8-treated groups, which were treated twice per week and once a week, respectively.

C-PAE cells = test: Endothelial cell proliferation, methylene blue staining; type: cell-based, bovine
Protocol: A methylene blue staining test was also done. 3,100 cells were added to each well and treated as above, and cells were then counted using the method of Oliver et al. (Oliver, M. H. et al., 1989, J. Cell. Science 92:513-18). All wells were washed one time with […] of 1×PBS and the cells were fixed by adding […] of 10% formalin in neutral-buffered saline (Sigma Chemical Co., St. Louis, Mo., USA) for 30 minutes at room temperature. After formalin removal cells were stained with a solution of 1% methylene blue (Sigma Chemical Co.) in 0.01 M borate buffer (pH 8.5) for 30 minutes at room temperature. After removal of staining solution, the wells were washed 5 times with […] of 0.01 M borate buffer (pH 8.5). Methylene blue was extracted from the cells with […] of 0.1N HCi/ethanol (1:1 mixture) for 1 hour at room temperature. The amount of methylene blue staining was measured on a microplate reader (BioRad, Hercules, Calif., USA) using light absorbance at 655 nm wavelength.
In the methylene-blue staining method, 7000 cells were plated into each well of a 96-well plate, and treated as described above. Cells were then counted using the method of Oliver et al. (1989, J. Cell. Sci. 92:513-8). After 48 hours of treatment, all wells were washed with 100 μl of PBS, and the cells fixed with 10% formalin in neutral-buffered saline (Sigma Chemical Co., St. Louis, Mo., USA). The cells were then stained with 1% methylene blue (Sigma) in 0.01M borate buffer, pH 8.5. Wells were washed with 0.01M borate buffer, and the methylene blue extracted from the cells with 0.1N HCl/ethanol, and the absorbance measured in a microplate reader (Bio-Rad, Hercules, Calif., USA) at 655 nm. Polymyxin B (Sigma) at a final concentration of 5 μg/ml was used to inactivate endotoxin (Liu, S. et al., 1997, Clin. Biochem. 30:455-63).
Proliferation of endothelial cells (C-PAE cells) and WM-164 melanoma cells was assayed by methylene blue staining, as described above in Examples 25 and 34. The results are shown in FIGS. 33A and 33B, which are a pair of graphs showing the effect of increasing concentration (x-axis) of Tumstatin, Tum-1, Tum-2, Tum-3 and Tum-4 on the relative number (y-axis) of C-PAE cells (FIG. 33A) and WM-164 cells (FIG. 33B). […] Tum-4, however, did have anti-proliferative activity in this cell line. […] Only Tum-4 inhibited WM-164 melanoma cells.
For the proliferation assay, Canstatin, Can-1 and Can-2 soluble proteins (0.1-20.0 μg/ml) were added to the growth medium of proliferating C-PAE cells, which were stimulated with 10% FBS in DMEM, in addition to 5 ng/ml bFGF and 3 ng/ml VEGF. The results are shown in FIG. 40, which is a graph showing the effect of increasing concentrations of Canstatin (♦), Can-1 (▪) and Can-2 (▴) (x-axis) on the relative cell number (y-axis) of C-PAE cells. Each concentration of each protein was tested in quadruplicate. Bovine serum albumin (BSA) was used as a control treatment. Polymyxin B was used to control for endotoxin interference, and no differences were found between assays run with and without polymyxin B added to the medium. Cells were allowed to proliferate for 48 hours, and were then fixed, stained and the density read with a Bio-Rad plate reader (Bio-Rad, Hercules, Calif., USA). Canstatin and Can-1 both caused dose-dependent decreases in the percent cell number, and both reduced the number of cells by 80% at concentrations of 5 μg/ml and higher.
An endothelial cell proliferation assay was used to compare the activity of Tumstatin and some of the deletion mutants. Recombinant Tumstatin (28 kDa), Tumstatin-44-131 (12 kDa) and T3 peptide were used in a methylene blue proliferation assay in equimolar concentrations.

KQRFTTMPFLFSNVNDVSNFASRNDYS (T8-3 (amino acids 68-94 of SEQ ID NO10; lysine has been substituted for the leucine residue at position 68 of the full-length Tumstatin molecule, and serine has been substituted for the cysteine residues at positions 79 and 85))
Final Tumor Weight (V/Vo) ± SEM ([1]; 1.0 mg/kg i.p. daily): 370.1 ± 68.17
% Tumor growth inhibition ([1]; 5.0 mg/kg i.p. daily): 41.9%
Final Tumor Weight (V/Vo) ± SEM ([1]; 5.0 mg/kg i.p. daily): 272.4 ± 34.86
% Tumor growth inhibition (PC3 tumor xenografts [2]; 1.0 mg/kg i.p. daily): 28.5%
Final Tumor Weight (V/Vo) ± SEM (PC3 tumor xenografts [2]; 1.0 mg/kg i.p. daily): 765.1 ± 133.6
% Tumor growth inhibition (PC3 tumor xenografts [2]; 5.0 mg/kg i.p. daily): 35.4%
Final Tumor Weight (V/Vo) ± SEM (PC3 tumor xenografts [2]; 5.0 mg/kg i.p. daily): 691.5 ± 130.8

CC(C)[C@H](NC(=O)[C@H](CCC(=O)O)NC(=O)[C@@H](N)CC(=O)O)C(=O)N[C@@H](CC(=O)O)C(=O)CF [DEVD-fmk, Asp-Glu-Val-Asp-fluoromethyl ketone, reference compound]
effect of specific Caspase-3 inhibitor on protease activity (Caspase-3 in C-PAE cells): decreased the protease activity to baseline

KQRFTTMPFLFDNVNDVDNFASRNDYS (P2 (amino acids 68-94 of SEQ ID NO10; lysine has been substituted for the leucine residue at position 68 of the full-length Tumstatin molecule, and aspartic acid has been substituted for the cysteine residues at positions 79 and 85))
% Tumor growth inhibition ([1]; 1.0 mg/kg i.p. daily): 26.4%
Final Tumor Weight (V/Vo) ± SEM ([1]; 1.0 mg/kg i.p. daily): 344.7 ± 34.20
Final Tumor Weight (V/Vo) ± SEM ([1]; 5.0 mg/kg i.p. daily): 380.5 ± 25.91
% Tumor growth inhibition (PC3 tumor xenografts [2]; 1.0 mg/kg i.p. daily): 31.6%
Final Tumor Weight (V/Vo) ± SEM (PC3 tumor xenografts [2]; 1.0 mg/kg i.p. daily): 732.4 ± 85.96
% Tumor growth inhibition (PC3 tumor xenografts [2]; 5.0 mg/kg i.p. daily): 15.9%
Final Tumor Weight (V/Vo) ± SEM (PC3 tumor xenografts [2]; 5.0 mg/kg i.p. daily): 899.7 ± 60.25

TFNCVKNYQRLDFTSRFVMDSCANFPN (Scrambled peptide SP2) [reference compound]
% Tumor growth inhibition ([1]; 5.0 mg/kg i.p. daily): no tumor growth inhibition
Final Tumor Weight (V/Vo) ± SEM ([1]; 5.0 mg/kg i.p. daily): 527.2 ± 57.89
% Tumor growth inhibition (PC3 tumor xenografts [3]): 18.7%
Final Tumor Weight (V/Vo) ± SEM (PC3 tumor xenografts [3]; T7 vehicle 5.626 ± 0.38, T8 vehicle 6.278 ± 1.483): 5.097 ± 0.185
Final Tumor Weight (V/Vo) ± SEM (PC3 tumor xenografts [2]; 5.0 mg/kg i.p. daily): 931.0 ± 112.3

B1: Tum-3: residues 133 to 244 of Tumstatin (SEQ ID NO:24) (protein)
chain: AVHSQTTDIPPCPHGWISLWKGFSFIMFTSAGSEGTGQALASPGSCLEEFRASPFLECHGRGTCNYYSNSYSFWLASLNPERMFRKPIPSTVKAGELEKIISRCQVCMKKRH
modifications: Tum-3 (amino acids 133-244 of SEQ ID NO10)
effect on Caspase-3 activity (Caspase-3 in C-PAE cells; 5 μg/ml): did not
inhibition of proliferation of C-PAE cells (C-PAE cells; 15 μg/ml): did not inhibit
Relative Cell No. (%) C-PAE (C-PAE cells; 20% FCS, 15 μg/ml recombinant protein): 94.9 ± 3.1%
